Measured values reported in ChEMBL document CHEMBL5120836, “Discovery of novel 7,8-dihydropteridine-6(5H)-one-based DNA-PK inhibitors as potential anticancer agents via scaffold hopping strategy” (Eur J Med Chem, 2022).
pIC50: −log10 of the molar value. Active and inactive are the calls of the source. No cut-off for these calls is given here.

Tests used:
MDA-MB-231 [1] = test: Additive antiproliferative activity against human MDA-MB-231 cells assessed as combination index at 200 uM in presence of 0.1 uM doxorubicin by MTT assay; type: functional
HCT-116 [2] = test: Disruption of mitochondrial function in human HCT-116 cells assessed as decrease in mitochondrial membrane potential by measuring proportion of cells with red fluorescence at 1 uM incubated for 24 hrs by JC-1 staining based flow cytometry (reference value: 99.4%); type: functional; set-up: scale not given: the % may be the effect or the level left
[3] = Half life in rat liver microsomes; type: ADME, Microsome
HCT-116 [4] = test: Induction of apoptosis in human HCT-116 cells assessed as early apoptotic cells at 1 uM incubated for 24 hrs by AnnexinV-FITC/PI staining based flow cytometry (reference value: 3.04%); type: functional
HepG2 [5] = test: Synergistic antiproliferative activity against Doxorubicin-resistant human HepG2 cells assessed as combination index at 50 uM in presence of 0.1 uM doxorubicin by MTT assay; type: functional
HCT-116 [6] = test: Induction of apoptosis in human HCT-116 cells assessed as viable cells at 1 uM incubated for 24 hrs by AnnexinV-FITC/PI staining based flow cytometry (reference value: 93.9%); type: functional; conditions: read-out: Activity
MCF7 [7] = test: Synergistic antiproliferative activity against human MCF7 cells assessed as combination index at 0.5 uM in presence of 0.1 uM doxorubicin by MTT assay; type: functional
[8] = target: DNA-dependent protein kinase catalytic subunit (Homo sapiens, UniProt P78527); test: Inhibition of human native full length DNA-PK by ADP-Glo assay
[9] = Toxicity in BALB/c nude mouse xenografted with human HL-60 cells assessed as kidney morphological alterations at 100 mg/kg, po qd for 16 days by Hematoxylin and Eosin staining based analysis; type: organism-based; conditions: in vivo, 384 h, time 16 day
HCT-116 [10] = test: Disruption of mitochondrial function in human HCT-116 cells assessed as decrease in mitochondrial membrane potential by measuring proportion of cells with green fluorescence at 1 uM incubated for 24 hrs by JC-1 staining based flow cytometry (reference value: 0.566%); type: functional; set-up: scale not given: the % may be the effect or the level left
HCT-116 [11] = test: Induction of apoptosis in human HCT-116 cells assessed as late apoptotic cells at 1 uM incubated for 24 hrs by AnnexinV-FITC/PI staining based flow cytometry (reference value: 3.07%); type: functional
[12] = Tmax in Sprague-Dawley rat at 5 mg/kg, po; type: ADME, organism-based; conditions: in vivo
HCT-116 [13] = test: Antiproliferative activity against human HCT-116 cells assessed as inhibition of cell growth incubated for 48 hrs by MTT assay; type: functional, cell-based; conditions: HCT-116, 48 h
HepG2 [14] = test: Synergistic antiproliferative activity against Doxorubicin-resistant human HepG2 cells assessed as combination index at 25 uM in presence of 0.1 uM doxorubicin by MTT assay; type: functional
HL-60 [15] = test: Synergistic antiproliferative activity against human HL-60 cells assessed as combination index at 200 uM in presence of 0.1 uM doxorubicin by MTT assay; type: functional
HepG2 [16] = test: Synergistic antiproliferative activity against Doxorubicin-resistant human HepG2 cells assessed as combination index at 100 uM in presence of 0.1 uM doxorubicin by MTT assay; type: functional
[17] = target: Phosphatidylinositol 4,5-bisphosphate 3-kinase catalytic subunit beta isoform (Homo sapiens, UniProt P42338); test: Inhibition of human PI3Kbeta by ADP-Glo assay; type: toxicity
HCT-116 [18] = test: Antiproliferative activity against human HCT-116 cells assessed as inhibition of cell growth incubated for 48 hrs in presence of 100 nM doxorubicin by MTT assay; type: functional, cell-based; conditions: HCT-116, 48 h
MDA-MB-231 [19] = test: Synergistic antiproliferative activity against human MDA-MB-231 cells assessed as combination index at 3.1 uM in presence of 0.1 uM doxorubicin by MTT assay; type: functional
MCF7 [20] = test: Synergistic antiproliferative activity against human MCF7 cells assessed as combination index at 3.1 uM in presence of 0.1 uM doxorubicin by MTT assay; type: functional
HepG2 [21] = test: Synergistic antiproliferative activity against Doxorubicin-resistant human HepG2 cells assessed as combination index at 0.1 uM in presence of 0.1 uM doxorubicin by MTT assay; type: functional
MDA-MB-231 [22] = test: Synergistic antiproliferative activity against human MDA-MB-231 cells assessed as combination index at 0.5 uM in presence of 0.1 uM doxorubicin by MTT assay; type: functional
[23] = AUC (0 to infinity) in Sprague-Dawley rat at 5 mg/kg, po; type: ADME, organism-based; set-up: time infinity, dose 5 mg/kg, route po; conditions: in vivo
MDA-MB-231 [24] = test: Synergistic antiproliferative activity against human MDA-MB-231 cells assessed as inhibition of cell growth in presence of 100 nM doxorubicin by MTT assay; type: functional, cell-based
[25] = Toxicity in BALB/c nude mouse xenografted with human HL-60 cells assessed as serum RBC content at 100 mg/kg, po qd for 16 days (reference value: 10.375X10^12/L); type: organism-based, Erythrocyte; conditions: in vivo, 384 h, time 16 day
MCF7 [26] = test: Synergistic antiproliferative activity against human MCF7 cells assessed as combination index at 1 uM in presence of 0.1 uM doxorubicin by MTT assay; type: functional
[27] = Toxicity in BALB/c nude mouse xenografted with human HL-60 cells assessed as serum monocytes content at 100 mg/kg, po qd for 16 days (reference value: 12.2%); type: organism-based; conditions: in vivo, 384 h, time 16 day
MCF7 [28] = test: Synergistic antiproliferative activity against human MCF7 cells assessed as combination index at 25 uM in presence of 0.1 uM doxorubicin by MTT assay; type: functional
HL-60 [29] = test: Synergistic antitumor activity against human HL-60 cells xenografted in BALB/c nude mouse assessed as tumor weight at 100 mg/kg, po qd for 16 days co-administered with doxorubicin (reference value: 27.9%); type: functional; conditions: HL-60, 384 h, time 16 day
MDA-MB-231 [30] = test: Synergistic antiproliferative activity against human MDA-MB-231 cells assessed as combination index at 12.5 uM in presence of 0.1 uM doxorubicin by MTT assay; type: functional
MCF7 [31] = test: Synergistic antiproliferative activity against human MCF7 cells assessed as combination index at 200 uM in presence of 0.1 uM doxorubicin by MTT assay; type: functional
[32] = Plasma protein binding in rat assessed as free fraction; type: ADME, cell-free
[33] = target: Phosphatidylinositol 4,5-bisphosphate 3-kinase catalytic subunit alpha isoform (Homo sapiens, UniProt P42336); test: Inhibition of human PI3Kalpha by Kinase-Glo assay; type: toxicity
MDA-MB-231 [34] = test: Synergistic antiproliferative activity against human MDA-MB-231 cells assessed as combination index at 25 uM in presence of 0.1 uM doxorubicin by MTT assay; type: functional
[35] = Plasma protein binding in human assessed as free fraction; type: ADME, cell-free
[36] = MRT (0 to infinity) in Sprague-Dawley rat at 5 mg/kg, po; type: ADME, organism-based; conditions: in vivo
HL-60 [37] = test: Synergistic antiproliferative activity against human HL-60 cells assessed as combination index at 12.5 uM in presence of 0.1 uM doxorubicin by MTT assay; type: functional
[38] = Half life in Sprague-Dawley rat at 5 mg/kg, po; type: ADME, organism-based; conditions: in vivo
[39] = Toxicity in BALB/c nude mouse xenografted with human HL-60 cells assessed as serum granulocytes content at 100 mg/kg, po qd for 16 days (reference value: 0.51X10^9/L); type: organism-based; conditions: in vivo, 384 h, time 16 day

Sequence of Phosphatidylinositol 4,5-bisphosphate 3-kinase catalytic subunit alpha isoform (P42336 whole entry, canonical isoform): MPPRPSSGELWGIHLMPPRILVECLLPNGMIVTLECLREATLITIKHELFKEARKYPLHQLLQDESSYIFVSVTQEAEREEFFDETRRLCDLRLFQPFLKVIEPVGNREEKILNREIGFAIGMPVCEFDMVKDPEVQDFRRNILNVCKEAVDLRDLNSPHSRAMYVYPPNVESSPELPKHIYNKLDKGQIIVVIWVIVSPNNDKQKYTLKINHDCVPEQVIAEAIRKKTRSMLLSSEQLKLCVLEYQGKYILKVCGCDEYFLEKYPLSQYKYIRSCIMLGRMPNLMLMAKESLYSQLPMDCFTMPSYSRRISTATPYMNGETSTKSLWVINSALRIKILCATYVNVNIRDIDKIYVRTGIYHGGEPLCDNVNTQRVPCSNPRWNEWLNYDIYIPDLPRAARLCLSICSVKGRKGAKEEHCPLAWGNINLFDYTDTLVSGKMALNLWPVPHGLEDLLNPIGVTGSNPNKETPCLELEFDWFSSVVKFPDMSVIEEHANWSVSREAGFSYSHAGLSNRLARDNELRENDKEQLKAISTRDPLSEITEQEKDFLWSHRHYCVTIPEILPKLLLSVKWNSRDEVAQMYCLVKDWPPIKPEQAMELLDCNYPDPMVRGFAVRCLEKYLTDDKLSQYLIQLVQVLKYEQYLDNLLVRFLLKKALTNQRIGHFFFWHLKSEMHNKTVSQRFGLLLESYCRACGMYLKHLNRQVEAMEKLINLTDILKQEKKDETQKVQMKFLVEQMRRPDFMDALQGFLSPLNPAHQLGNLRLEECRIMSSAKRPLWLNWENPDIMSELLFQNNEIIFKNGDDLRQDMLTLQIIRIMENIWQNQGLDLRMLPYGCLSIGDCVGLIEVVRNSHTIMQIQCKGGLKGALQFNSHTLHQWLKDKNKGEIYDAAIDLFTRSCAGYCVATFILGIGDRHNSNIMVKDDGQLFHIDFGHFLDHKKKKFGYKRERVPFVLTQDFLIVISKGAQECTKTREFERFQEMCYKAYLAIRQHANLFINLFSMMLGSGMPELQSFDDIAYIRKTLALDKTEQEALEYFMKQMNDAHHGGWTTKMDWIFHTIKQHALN
Sequence of Phosphatidylinositol 4,5-bisphosphate 3-kinase catalytic subunit beta isoform (P42338 whole entry, canonical isoform): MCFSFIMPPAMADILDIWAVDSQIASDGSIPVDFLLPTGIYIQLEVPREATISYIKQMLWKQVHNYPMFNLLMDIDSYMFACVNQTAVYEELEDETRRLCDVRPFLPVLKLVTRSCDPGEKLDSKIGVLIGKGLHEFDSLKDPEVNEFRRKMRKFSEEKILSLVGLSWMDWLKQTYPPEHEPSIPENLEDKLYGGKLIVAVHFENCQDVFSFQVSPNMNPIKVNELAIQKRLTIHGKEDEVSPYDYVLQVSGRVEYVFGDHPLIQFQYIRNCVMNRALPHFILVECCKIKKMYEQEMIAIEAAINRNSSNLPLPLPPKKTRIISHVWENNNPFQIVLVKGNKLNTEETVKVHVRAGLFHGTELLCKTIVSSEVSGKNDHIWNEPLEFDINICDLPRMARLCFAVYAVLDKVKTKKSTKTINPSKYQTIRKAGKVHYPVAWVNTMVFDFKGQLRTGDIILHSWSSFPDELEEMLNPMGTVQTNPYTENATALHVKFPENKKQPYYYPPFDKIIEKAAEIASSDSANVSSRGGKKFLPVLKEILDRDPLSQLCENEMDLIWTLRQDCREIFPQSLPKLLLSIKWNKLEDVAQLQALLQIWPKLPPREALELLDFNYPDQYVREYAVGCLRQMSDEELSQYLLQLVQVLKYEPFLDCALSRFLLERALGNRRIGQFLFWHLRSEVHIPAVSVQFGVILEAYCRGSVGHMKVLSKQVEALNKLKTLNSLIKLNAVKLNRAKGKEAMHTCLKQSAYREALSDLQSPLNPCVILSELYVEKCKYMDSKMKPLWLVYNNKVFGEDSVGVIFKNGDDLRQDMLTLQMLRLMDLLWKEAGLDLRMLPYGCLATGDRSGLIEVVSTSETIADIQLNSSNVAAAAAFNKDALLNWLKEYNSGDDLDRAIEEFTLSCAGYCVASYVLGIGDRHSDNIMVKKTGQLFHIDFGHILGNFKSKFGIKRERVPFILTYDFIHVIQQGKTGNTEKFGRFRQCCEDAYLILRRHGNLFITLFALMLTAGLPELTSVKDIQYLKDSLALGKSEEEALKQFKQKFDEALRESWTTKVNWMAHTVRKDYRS

Question: What does the source list for `Cc1cc2ncnn2cc1Nc1ncc2c(n1)N(C1CCOCC1)CC(=O)N2C`?
Answer: CI (MDA-MB-231 [1]): 1.006; Activity (HCT-116 [2]): 96.4%; half-life [3]: > 2.42 h; Activity (HCT-116 [4]): 3.46%; CI (HepG2 [5]): 0.09496; viability at 1 µM (HCT-116 [6]): 92.5%; CI (MCF7 [7]): 0.04646; pIC50 [8]: 9.10; Activity [9]: Non-Toxic; Activity (HCT-116 [10]): 3.55%; Activity (HCT-116 [11]): 4.05%; Tmax [12]: 0.42 h; pIC50 (HCT-116 [13]): 4.62; CI (HepG2 [14]): 0.07268; CI (HL-60 [15]): 0.9812; CI (HepG2 [16]): 0.1244; pIC50 [17]: 6.08; pIC50 (HCT-116 [18]): 4.77; CI (MDA-MB-231 [19]): 0.3259; CI (MCF7 [20]): 0.05143; CI (HepG2 [21]): 0.06059; CI (MDA-MB-231 [22]): 0.3617; AUC(0-inf) [23]: 3600 ng·h/mL; Activity (MDA-MB-231 [24]): Active; Activity [25]: 10.315 10^12/L; CI (MCF7 [26]): 0.03832; Activity [27]: 12.15%; CI (MCF7 [28]): 0.06966; inhibition in vivo at 100 mg/kg (HL-60 [29]): 52.4%; CI (MDA-MB-231 [30]): 0.474; CI (MCF7 [31]): 0.2697; fraction unbound [32]: 0.667; pIC50 [33]: 6.73; CI (MDA-MB-231 [34]): 0.5933; fraction unbound [35]: 0.859; MRT inf [36]: 2.29 h; CI (HL-60 [37]): 0.06945; half-life [38]: 1.59 h; Activity [39]: 0.49 10^9/L
